Earlier results as cited in patent publication US20170158776A1, “TREATMENT OF LUNG CANCER USING A COMBINATION OF AN ANTI-PD-1 ANTIBODY AND ANOTHER ANTI-CANCER AGENT” (Bristol-Myers Squibb Company, priority 2014, published 2017).

System: EGFR MT NSCLC
Details: first-line treatment of EGFR MT NSCLC; cited from earlier work

Q: Which “median progression-free survival (PFS)” value does the source give for `C#Cc1cccc(Nc2ncnc3cc(OCCOC)c(OCCOC)cc23)c1` [erlotinib] here?
A: 10.4 months
